Reference: BindingDB's records for doi:10.1021/jm00007a008 (Glaxo Inc. Research Institute, 1995)

Legend:
[1] = In vitro fragmentation of DNA in the presence of excess calf thymus topoisomerase.
[2] = Minimum concentration that produced 50% fragmentation of DNA was measured in the presence of excess calf thymus topoisomerase.

Question: With CC[C@@]1(O)C(=O)OCc2c1cc1n(c2=O)Cc2c-1nc1c[n+]([O-])c(CNC(=O)OC(C)(C)C)cc1c2C [((S)-4-Ethyl-4-hydroxy-11-methyl-3,13-dioxo-8-oxy-3,4,12,13-tetrahydro-1H-2-oxa-6,8,12a-triaza-dibenzo[b,h]fluoren-9-ylmethyl)-carbamic acid tert-butyl ester] as the compound, how does the IC50 [1] read?
Answer: The IC50 was 217 nM.

Question: Which IC50 [2] does the source give for CCc1c2c(nc3cnc(C(=N)NO)cc13)-c1cc3c(c(=O)n1C2)COC(=O)[C@]3(O)CC [(S)-4,11-Diethyl-4,N-dihydroxy-3,13-dioxo-3,4,12,13-tetrahydro-1H-2-oxa-6,8,12a-triaza-dibenzo[b,h]fluorene-9-carboxamidine] here?
Answer: Its IC50 is 71 nM.

Question: Which IC50 [1] does the source give for CCc1c2c(nc3cnccc13)-c1cc3c(c(=O)n1C2)COC(=O)[C@]3(O)CC [(S)-4,11-Diethyl-4-hydroxy-1,12-dihydro-4H-2-oxa-6,8,12a-triaza-dibenzo[b,h]fluorene-3,13-dione] here?
Answer: The IC50 was 336 nM.

Question: For CCc1c2c(nc3cnc(C#N)cc13)-c1cc3c(c(=O)n1C2)COC(=O)[C@]3(O)CC [(S)-4,11-Diethyl-4-hydroxy-3,13-dioxo-3,4,12,13-tetrahydro-1H-2-oxa-6,8,12a-triaza-dibenzo[b,h]fluorene-9-carbonitrile], which IC50 [1] is on record?
Answer: Its IC50 is 268 nM.

Question: For CCc1c2c(nc3cnc(C(=N)N)cc13)-c1cc3c(c(=O)n1C2)COC(=O)[C@]3(O)CC [(S)-4,11-Diethyl-4-hydroxy-3,13-dioxo-3,4,12,13-tetrahydro-1H-2-oxa-6,8,12a-triaza-dibenzo[b,h]fluorene-9-carboxamidine], which IC50 [2] is on record?
Answer: The IC50 was 33 nM.

Question: With CCc1c2c(nc3cnc(C(=O)NCCN(C)C)cc13)-c1cc3c(c(=O)n1C2)COC(=O)[C@]3(O)CC [(S)-4,11-Diethyl-4-hydroxy-3,13-dioxo-3,4,12,13-tetrahydro-1H-2-oxa-6,8,12a-triaza-dibenzo[b,h]fluorene-9-carboxylic acid (2-dimethylamino-ethyl)-amide] as the compound, how does the IC50 [1] read?
Answer: The IC50 was 9330 nM.

Question: For CCOC(=O)c1cc2c(CC)c3c(nc2cn1)-c1cc2c(c(=O)n1C3)COC(=O)[C@]2(O)CC [(S)-4,11-Diethyl-4-hydroxy-3,13-dioxo-3,4,12,13-tetrahydro-1H-2-oxa-6,8,12a-triaza-dibenzo[b,h]fluorene-9-carboxylic acid ethyl ester], which IC50 [1] is on record?
Answer: Its IC50 is 949 nM.

Question: For CCc1c2c(nc3c[n+](C)ccc13)-c1cc3c(c(=O)n1C2)COC(=O)[C@]3(O)CC [(S)-4,11-Diethyl-4-hydroxy-8-methyl-3,13-dioxo-3,4,12,13-tetrahydro-1H-2-oxa-6,12a-diaza-8-azonia-dibenzo[b,h]fluorene; iodide], which IC50 [2] is on record?
Answer: The IC50 was 1460 nM.

Question: For CC[C@@]1(O)C(=O)OCc2c1cc1n(c2=O)Cc2cc3ccncc3nc2-1 [(S)-4-Ethyl-4-hydroxy-1,12-dihydro-4H-2-oxa-6,8,12a-triaza-dibenzo[b,h]fluorene-3,13-dione], which IC50 [1] is on record?
Answer: The IC50 was 383 nM.

Question: With CC[C@@]1(O)C(=O)OCc2c1cc1n(c2=O)Cc2cc3cc[n+]([O-])cc3nc2-1 [(S)-4-Ethyl-4-hydroxy-8-oxy-1,12-dihydro-4H-2-oxa-6,8,12a-triaza-dibenzo[b,h]fluorene-3,13-dione] as the compound, how does the IC50 [1] read?
Answer: The IC50 was 1180 nM.

Question: For CC[C@@]1(O)C(=O)OCc2c1cc1n(c2=O)Cc2c-1nc1cnc(C#CCN3CCOCC3)cc1c2C [(S)-4-Ethyl-4-hydroxy-11-methyl-9-(3-morpholin-4-yl-prop-1-ynyl)-1,12-dihydro-4H-2-oxa-6,8,12a-triaza-dibenzo[b,h]fluorene-3,13-dione], which IC50 [1] is on record?
Answer: Its IC50 is 1110 nM.

Question: For CCc1c2c(nc3cnc(C#CCN)cc13)-c1cc3c(c(=O)n1C2)COC(=O)[C@]3(O)CC [(S)-9-(3-Amino-prop-1-ynyl)-4,11-diethyl-4-hydroxy-1,12-dihydro-4H-2-oxa-6,8,12a-triaza-dibenzo[b,h]fluorene-3,13-dione], which IC50 [2] is on record?
Answer: The IC50 was 1080 nM.

Question: For CC[C@@]1(O)C(=O)OCc2c1cc1n(c2=O)Cc2c-1nc1cnc(C#CCN)cc1c2C [(S)-9-(3-Amino-prop-1-ynyl)-4-ethyl-4-hydroxy-11-methyl-1,12-dihydro-4H-2-oxa-6,8,12a-triaza-dibenzo[b,h]fluorene-3,13-dione], which IC50 [1] is on record?
Answer: Its IC50 is 505 nM.

Question: With CCc1c2c(nc3cnc(C#CCN(C)C)cc13)-c1cc3c(c(=O)n1C2)COC(=O)[C@]3(O)CC [(S)-9-(3-Dimethylamino-prop-1-ynyl)-4,11-diethyl-4-hydroxy-1,12-dihydro-4H-2-oxa-6,8,12a-triaza-dibenzo[b,h]fluorene-3,13-dione] as the compound, how does the IC50 [1] read?
Answer: Its IC50 is 1330 nM.

Question: Which IC50 [1] does the source give for CCc1c2c(nc3cnc(CCCN(C)C)cc13)-c1cc3c(c(=O)n1C2)COC(=O)[C@]3(O)CC [(S)-9-(3-Dimethylamino-propyl)-4,11-diethyl-4-hydroxy-1,12-dihydro-4H-2-oxa-6,8,12a-triaza-dibenzo[b,h]fluorene-3,13-dione] here?
Answer: The IC50 was 1490 nM.

Question: With CCc1c2c(nc3cnc(CN)cc13)-c1cc3c(c(=O)n1C2)COC(=O)[C@]3(O)CC [(S)-9-Aminomethyl-4,11-diethyl-4-hydroxy-1,12-dihydro-4H-2-oxa-6,8,12a-triaza-dibenzo[b,h]fluorene-3,13-dione] as the compound, how does the IC50 [1] read?
Answer: The IC50 was 167 nM.

Question: With CC[C@@]1(O)C(=O)OCc2c1cc1n(c2=O)Cc2c-1nc1cnc(CN)cc1c2C [(S)-9-Aminomethyl-4-ethyl-4-hydroxy-11-methyl-1,12-dihydro-4H-2-oxa-6,8,12a-triaza-dibenzo[b,h]fluorene-3,13-dione] as the compound, how does the IC50 [2] read?
Answer: Its IC50 is 232 nM.

Question: With CC[C@@]1(O)C(=O)OCc2c1cc1n(c2=O)Cc2c-1nc1c[n+]([O-])c(CN)cc1c2C [(S)-9-Aminomethyl-4-ethyl-4-hydroxy-11-methyl-8-oxy-1,12-dihydro-4H-2-oxa-6,8,12a-triaza-dibenzo[b,h]fluorene-3,13-dione] as the compound, how does the IC50 [2] read?
Answer: The IC50 was 190 nM.

Question: With CCc1c2c(nc3cnc(Br)cc13)-c1cc3c(c(=O)n1C2)COC(=O)[C@]3(O)CC [(S)-9-Bromo-4,11-diethyl-4-hydroxy-1,12-dihydro-4H-2-oxa-6,8,12a-triaza-dibenzo[b,h]fluorene-3,13-dione] as the compound, how does the IC50 [1] read?
Answer: The IC50 was 122 nM.
